Holding throughout (test): AK assay 384-well format, Prestwick library screening
Experiment [1] concerns S. aureus strain USA300-0114. In kind it is cell-based, Staphylococcus aureus. Conditions: 50 μM final drug concentration; for fold induction at 50 µM: Staphylococcus aureus, USA300, 3 h.
Experiment [2] deals with E. coli. In kind it is cell-based, Escherichia coli. As to conditions: 50 μM final drug concentration; for fold induction at 50 µM: Escherichia coli, 3 h.
For experiment [3], the system named is K. pneumoniae. The format is cell-based, Klebsiella pneumoniae. As to conditions: 50 μM final drug concentration; for fold induction at 50 µM: Klebsiella pneumoniae, 3 h.
Experiment [4] concerns A. baumannii strain 98-37-09. In kind it is cell-based, Acinetobacter baumannii. Conditions: 50 μM final drug concentration; for fold induction at 50 µM: Acinetobacter baumannii, 983709, 3 h.
For experiment [5], the system named is E. faecium. In kind it is cell-based, Enterococcus faecium. As to conditions: 50 μM final drug concentration; for fold induction at 50 µM: Enterococcus faecium, 3 h.
In experiment [6] the test system is P. aeruginosa. The format is cell-based, Pseudomonas aeruginosa. As to conditions: 50 μM final drug concentration; for fold induction at 50 µM: Pseudomonas aeruginosa, 3 h.
For experiment [7], the system named is E. cloacae. In kind it is cell-based, Enterobacter cloacae. As to conditions: 50 μM final drug concentration; for fold induction at 50 µM: Enterobacter cloacae, 3 h.
Setting [8] is: planktonic, cutoff for positive-scoring molecules 3-fold increase, read-out: AK-based Prestwick Library Screening Results, S. aureus (fold increase in extracellular AK activity).
Where [9] appears, read: planktonic, cutoff for positive-scoring molecules 3-fold increase, read-out: AK-based Prestwick Library Screening Results, E. coli (fold increase in extracellular AK activity).
[10] abbreviates: planktonic, cutoff for positive-scoring molecules 3-fold increase, read-out: AK-based Prestwick Library Screening Results, K. pneumoniae (fold increase in extracellular AK activity).
Setting [11] is: planktonic, cutoff for positive-scoring molecules 3-fold increase, read-out: AK-based Prestwick Library Screening Results, A. baumannii (fold increase in extracellular AK activity).
Setting [12] is: planktonic, cutoff for positive-scoring molecules 3-fold increase, read-out: AK-based Prestwick Library Screening Results, E. faecium (fold increase in extracellular AK activity).
[13] abbreviates: planktonic, cutoff for positive-scoring molecules 3-fold increase, read-out: AK-based Prestwick Library Screening Results, P. aeruginosa (fold increase in extracellular AK activity).
The mark [14] stands for this setting: planktonic, cutoff for positive-scoring molecules 3-fold increase, read-out: AK-based Prestwick Library Screening Results, E. cloacae (fold increase in extracellular AK activity).
Where [15] appears, read: cutoff for positive-scoring molecules 3-fold increase, read-out: AK-based Prestwick Library Screening Results, S. aureus (fold increase in extracellular AK activity).
Setting [16] is: cutoff for positive-scoring molecules 3-fold increase, read-out: AK-based Prestwick Library Screening Results, E. coli (fold increase in extracellular AK activity).
The mark [17] stands for this setting: cutoff for positive-scoring molecules 3-fold increase, read-out: AK-based Prestwick Library Screening Results, K. pneumoniae (fold increase in extracellular AK activity).
Where [18] appears, read: cutoff for positive-scoring molecules 3-fold increase, read-out: AK-based Prestwick Library Screening Results, A. baumannii (fold increase in extracellular AK activity).
Setting [19] is: cutoff for positive-scoring molecules 3-fold increase, read-out: AK-based Prestwick Library Screening Results, E. faecium (fold increase in extracellular AK activity).
[20] abbreviates: cutoff for positive-scoring molecules 3-fold increase, read-out: AK-based Prestwick Library Screening Results, P. aeruginosa (fold increase in extracellular AK activity).
[21] abbreviates: cutoff for positive-scoring molecules 3-fold increase, read-out: AK-based Prestwick Library Screening Results, E. cloacae (fold increase in extracellular AK activity).
Setting [22] is: cutoff for positive-scoring molecules 3-fold increase.

We go through nine molecules from patent US10004701B2, “Methods and compositions for treating infection” (UNIVERSITY OF ROCHESTER, priority 2012, dated 2018).

Counter-ions that a name gives are not always drawn. Like-named read-outs stand apart in the source and are kept apart here.

On to `CCc1cc(C(N)=S)ccn1` [Ethionamide], for which the fold induction at 50 µM was found to be 1.3 in experiment [1] (planktonic, cutoff for positive 3-fold increase, read-out: AK-based Prestwick Library Screening Results, S. aureus (fold increase in extracellular AK activity)); 1.1 in experiment [2] (planktonic, cutoff for positive 3-fold increase, read-out: AK-based Prestwick Library Screening Results, E. coli (fold increase in extracellular AK activity)); 1 in experiment [3] (planktonic, cutoff for positive 3-fold increase, read-out: AK-based Prestwick Library Screening Results, K. pneumoniae (fold increase in extracellular AK activity)); 1.2 in experiment [4] (planktonic, cutoff for positive 3-fold increase, read-out: AK-based Prestwick Library Screening Results, A. baumannii (fold increase in extracellular AK activity)); 1 in experiment [5] (planktonic, cutoff for positive 3-fold increase, read-out: AK-based Prestwick Library Screening Results, E. faecium (fold increase in extracellular AK activity)); 1.1 in experiment [6] (planktonic, cutoff for positive 3-fold increase, read-out: AK-based Prestwick Library Screening Results, P. aeruginosa (fold increase in extracellular AK activity)). Also, the fold induction at 50 µM in experiment [7] (planktonic, cutoff for positive 3-fold increase, read-out: AK-based Prestwick Library Screening Results, E. cloacae (fold increase in extracellular AK activity)) amounted to 1.4.
As to `C#C[C@]1(O)CC[C@H]2[C@@H]3CCC4=CC(=O)CC[C@]4(C)[C@H]3CC[C@@]21C` [Ethisterone], the fold induction at 50 µM in experiment [1] (384-well format, […], read-out: AK-based Prestwick Library Screening Results, S. aureus (increase in extracellular AK activity)) came to 0.8; in experiment [2] (384-well format, […], read-out: AK-based Prestwick Library Screening Results, E. coli (increase in extracellular AK activity)), 1; in experiment [3] (384-well format, […], read-out: AK-based Prestwick Library Screening Results, K. pneumoniae (increase in extracellular AK activity)), 0.8; in experiment [4] (384-well format, […], read-out: AK-based Prestwick Library Screening Results, A. baumannii (increase in extracellular AK activity)), 0.9; in experiment [5] (384-well format, […], read-out: AK-based Prestwick Library Screening Results, E. faecium (increase in extracellular AK activity)), 0.9; in experiment [6] (384-well format, […], read-out: AK-based Prestwick Library Screening Results, P. aeruginosa (increase in extracellular AK activity)), 1. The fold induction at 50 µM in experiment [7] (384-well format, […], read-out: AK-based Prestwick Library Screening Results, E. cloacae (increase in extracellular AK activity)) was found to be 1.1.
As for `CCN(CC)C(C)CN1c2ccccc2Sc2ccccc21` (stereo not drawn) [Ethopropazine hydrochloride], the fold induction at 50 µM in experiment [1] (setting [8]) was 0.7; in experiment [2] (setting [9]), 0.9; in experiment [3] (setting [10]), 0.8; in experiment [4] (setting [11]) it was 1; in experiment [5] (setting [12]), 0.9; in experiment [6] (setting [13]), 1. In experiment [7] (setting [14]), the fold induction at 50 µM was 1.3.
Consider `CCC1(C)CC(=O)NC1=O` (stereo not drawn) [Ethosuximide], for which the fold induction at 50 µM in experiment [1] (384-well format, cutoff for positive-scoring molecules 3-fold increase, read-out: AK-based Prestwick Library Screening Results, S. aureus (increase in extracellular AK activity)) worked out at 0.5; in experiment [2] (384-well format, cutoff for positive-scoring molecules 3-fold increase, read-out: AK-based Prestwick Library Screening Results, E. coli (increase in extracellular AK activity)), 0.6; in experiment [3] (384-well format, cutoff for positive-scoring molecules 3-fold increase, read-out: AK-based Prestwick Library Screening Results, K. pneumoniae (increase in extracellular AK activity)) it was 0.6; in experiment [4] (384-well format, cutoff for positive-scoring molecules 3-fold increase, read-out: AK-based Prestwick Library Screening Results, A. baumannii (increase in extracellular AK activity)), 0.5; in experiment [5] (384-well format, cutoff for positive-scoring molecules 3-fold increase, read-out: AK-based Prestwick Library Screening Results, E. faecium (increase in extracellular AK activity)), 0.9; in experiment [6] (384-well format, cutoff for positive-scoring molecules 3-fold increase, read-out: AK-based Prestwick Library Screening Results, P. aeruginosa (increase in extracellular AK activity)), 0.5. Also, the fold induction at 50 µM in experiment [7] (384-well format, cutoff for positive-scoring molecules 3-fold increase, read-out: AK-based Prestwick Library Screening Results, E. cloacae (increase in extracellular AK activity)) came out at 0.6.
For `CCN1C(=O)NC(c2ccccc2)C1=O` (stereo not drawn) [Ethotoin], the fold induction at 50 µM in experiment [1] (setting [15]) worked out at 1.2; in experiment [2] (setting [16]) it was 1.2; in experiment [3] (setting [17]), 1; in experiment [4] (setting [18]) it was 1.1; in experiment [5] (setting [19]), 1; in experiment [6] (setting [20]), 0.9. The fold induction at 50 µM in experiment [7] (setting [21]) was 1.6.
For the molecule `CCOc1ccc2c(c1)C(C)=CC(C)(C)N2` [Ethoxyquin], the fold induction at 50 µM in experiment [1] (setting [8]) is 1.1; in experiment [2] (setting [9]), 1.1; in experiment [3] (setting [10]) it was 0.9; in experiment [4] (setting [11]), 0.9; in experiment [5] (setting [12]) it was 0.9; in experiment [6] (setting [13]), 1.1. The fold induction at 50 µM in experiment [7] (setting [14]) was 1.4.
With `C#C[C@]1(OC(C)=O)CC[C@H]2[C@@H]3CCC4=C[C@@H](OC(C)=O)CC[C@@H]4[C@H]3CC[C@@]21C` [Ethynodiol diacetate], the fold induction at 50 µM in experiment [1] (setting [8]) is 0.5; in experiment [2] (setting [9]), 0.8; in experiment [3] (setting [10]), 0.7; in experiment [4] (setting [11]) it was 0.9; in experiment [5] (setting [12]), 0.9; in experiment [6] (setting [13]), 0.9. In addition, in experiment [7] (setting [14]), the fold induction at 50 µM is 1.1.
For `C#C[C@]1(O)CC[C@H]2[C@@H]3CCc4cc(OC)ccc4[C@H]3CC[C@@]21C` [Ethynylestradiol 3-methyl ether], in experiment [1] (setting [22]), the “AK-based Prestwick Library Screening Results, S. aureus (fold increase in extracellular AK activity)” value is 0.8. Besides, the “AK-based Prestwick Library Screening Results, E. coli (fold increase in extracellular AK activity)” value in experiment [2] (setting [22]) was found to be 1.2. Also, the “AK-based Prestwick Library Screening Results, K. pneumoniae (fold increase in extracellular AK activity)” value in experiment [3] (setting [22]) is on record as 0.8. Also, in experiment [4] (setting [22]), the “AK-based Prestwick Library Screening Results, A. baumannii (fold increase in extracellular AK activity)” value is 1.1. Further, the “AK-based Prestwick Library Screening Results, E. faecium (fold increase in extracellular AK activity)” value in experiment [5] (setting [22]) is on record as 0.9. Also, in experiment [6] (setting [22]), the “AK-based Prestwick Library Screening Results, P. aeruginosa (fold increase in extracellular AK activity)” value worked out at 1.1. In addition, the “AK-based Prestwick Library Screening Results, E. cloacae (fold increase in extracellular AK activity)” value in experiment [7] (setting [22]) came out at 1.5.
For `CC(O)(P(=O)(O)O)P(=O)(O)O` [Etidronic acid, disodium salt], the fold induction at 50 µM amounted to 1.2 in experiment [1] (setting [15]); 1.3 in experiment [2] (setting [16]); 1 in experiment [3] (setting [17]); 1.2 in experiment [4] (setting [18]); 1 in experiment [5] (setting [19]); 1.1 in experiment [6] (setting [20]). In addition, in experiment [7] (setting [21]), the fold induction at 50 µM worked out at 1.4.
